What was measured:
[1] = biological target: JAK3 (recombinant human kinase domain) (Homo sapiens, UniProt P52333); experiment: Determination of IC50 of Janus Kinase (JAK) inhibition, radioactive end-point 33P-ATP assay, JAK3; format: biochemical; conditions: ATP 1.5 uM, peptide 50 uM, 20 minutes, room temperature, read-out: IC50 h-jak3-sf21-c
Description: Determination of IC50 of Janus Kinase (JAK) Inhibition: […]

Sequence of JAK3 (recombinant human kinase domain) (P52333 822-1111 limits assumed): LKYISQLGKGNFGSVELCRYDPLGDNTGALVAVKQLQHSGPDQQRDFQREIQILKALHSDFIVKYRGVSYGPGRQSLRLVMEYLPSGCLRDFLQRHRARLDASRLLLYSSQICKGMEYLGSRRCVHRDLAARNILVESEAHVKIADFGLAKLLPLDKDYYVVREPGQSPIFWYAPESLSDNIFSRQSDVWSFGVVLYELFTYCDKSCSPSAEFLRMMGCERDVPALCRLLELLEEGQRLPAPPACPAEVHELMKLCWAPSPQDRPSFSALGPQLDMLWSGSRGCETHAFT

| SMILES | melting point | IC50 [1] |
| --- | --- | --- |
| CN1CCOc2cc(-c3cnc4[nH]cc(C(=O)C(C)(C)C)c4n3)ccc21 [Compound I-3, 2,2-Dimethyl-1-[2-(4-methyl-3,4-dihydro-2H-benzo[1,4]oxazin-7-yl)-5H-pyrrolo[2,3-b]pyrazin-7-yl]-propan-1-one] | 233 to 234 °C | – |
| CC(C)(C)C(=O)c1c[nH]c2ncc(-c3ccc4c(c3)NC(=O)C(C)(C)O4)nc12 [Compound I-7, 6-[7-(2,2-Dimethyl-propionyl)-5H-pyrrolo[2,3-b]pyrazin-2-yl]-2,2-dimethyl-4H-benzo[1,4]oxazin-3-one] | > 300 °C | – |
| CN1CCOc2ccc(-c3cnc4[nH]cc(C(=O)C(C)(C)C)c4n3)cc21 [Compound I-8, 2,2-Dimethyl-1-[2-(4-methyl-3,4-dihydro-2H-benzo[1,4]oxazin-6-yl)-5H-pyrrolo[2,3-b]pyrazin-7-yl]-propan-1-one] | 255 to 265 °C | – |
| CC(C)(C)C(=O)c1c[nH]c2ncc(-c3ccc4c(c3)NC(=O)CO4)nc12 [Compound I-9, 6-[7-(2,2-Dimethyl-propionyl)-5H-pyrrolo[2,3-b]pyrazin-2-yl]-4H-benzo[1,4]oxazin-3-one] | > 350 °C | – |
| CN1C(=O)COc2ccc(-c3cnc4[nH]cc(C(=O)C(C)(C)C)c4n3)cc21 [Compound I-10, 6-[7-(2,2-Dimethyl-propionyl)-5H-pyrrolo[2,3-b]pyrazin-2-yl]-4-methyl-4H-benzo[1,4]oxazin-3-one] | 277 to 278 °C | – |
| CC(C)(C)C(=O)c1c[nH]c2ncc(-c3cc(NS(=O)(=O)c4ccc(N)cc4)c4cc[nH]c4c3)nc12 [Compound I-19, 4-Amino-N-{6-[7-(2,2-dimethyl-propionyl)-5H-pyrrolo[2,3-b]pyrazin-2-yl]-1H-indol-4-yl}-benzenesulfonamide] | 285 to 292 °C | – |
| CC1(C(=O)c2c[nH]c3ncc(-c4ccc5c(c4)NC(=O)C(C)(C)O5)nc23)CCCCC1 [Compound I-21, 2,2-Dimethyl-6-[7-(1-methyl-cyclohexanecarbonyl)-5H-pyrrolo[2,3-b]pyrazin-2-yl]-4H-benzo[1,4]oxazin-3-one] | > 300 °C | – |
| CC(C)(C)C(=O)c1c[nH]c2ncc(-c3ccc4c(c3)SCC(=O)N4)nc12 [Compound I-22, 7-[7-(2,2-Dimethyl-propionyl)-5H-pyrrolo[2,3-b]pyrazin-2-yl]-4H-benzo[1,4]thiazin-3-one] | > 300 °C | – |
| CC(C)(C)C(=O)c1c[nH]c2ncc(-c3cc(NS(C)(=O)=O)c4cc[nH]c4c3)nc12 [Compound I-26, N-{6-[7-(2,2-Dimethyl-propionyl)-5H-pyrrolo[2,3-b]pyrazin-2-yl]-1H-indol-4-yl}-methanesulfonamide] | > 300 °C | – |
| CC(C)(C)C(=O)c1c[nH]c2ncc(-c3cc(NS(=O)(=O)c4ccccc4)c4cc[nH]c4c3)nc12 [Compound I-27, N-{6-[7-(2,2-Dimethyl-propionyl)-5H-pyrrolo[2,3-b]pyrazin-2-yl]-1H-indol-4-yl}-benzenesulfonamide] | 275 to 285 °C | – |
| CC(C)(C)C(=O)c1c[nH]c2ncc(-c3cc(NS(=O)(=O)c4ccc(Cl)cc4)c4cc[nH]c4c3)nc12 [Compound I-33, 4-Chloro-N-{6-[7-(2,2-dimethyl-propionyl)-5H-pyrrolo[2,3-b]pyrazin-2-yl]-1H-indol-4-yl}-benzenesulfonamide] | 264 to 266 °C | – |
| CC(C)(C)C(=O)c1c[nH]c2ncc(-c3cc(NS(=O)(=O)c4ccc(F)cc4)c4cc[nH]c4c3)nc12 [Compound I-34, N-{6-[7-(2,2-Dimethyl-propionyl)-5H-pyrrolo[2,3-b]pyrazin-2-yl]-1H-indol-4-yl}-4-fluoro-benzenesulfonamide] | 295 to 297 °C | – |
| COc1ccc(S(=O)(=O)Nc2cc(-c3cnc4[nH]cc(C(=O)C(C)(C)C)c4n3)cc3[nH]ccc23)cc1 [Compound I-35, N-{6-[7-(2,2-Dimethyl-propionyl)-5H-pyrrolo[2,3-b]pyrazin-2-yl]-1H-indol-4-yl}-4-methoxy-benzenesulfonamide] | 231 to 233 °C | – |
| CC(C)(C)C(=O)c1c[nH]c2ncc(-c3cc(NS(=O)(=O)c4cccnc4)c4cc[nH]c4c3)nc12 [Compound I-37, Pyridine-3-sulfonic acid {6-[7-(2,2-dimethyl-propionyl)-5H-pyrrolo[2,3-b]pyrazin-2-yl]-1H-indol-4-yl}-amide] | 305 to 307 °C | – |
| CN1CCOc2cc(-c3cnc4[nH]cc(C(=O)C5(C)CCCCC5)c4n3)ccc21 [Compound I-39, (1-Methyl-cyclohexyl)-[2-(4-methyl-3,4-dihydro-2H-benzo[1,4]oxazin-7-yl)-5H-pyrrolo[2,3-b]pyrazin-7-yl]-methanone] | 243 to 244 °C | – |
| CC(C)(C)C(=O)c1c[nH]c2ncc(-c3ccc4c(ccn4Cc4ccccn4)c3)nc12 [Compound I-46, 2,2-Dimethyl-1-[2-(1-pyridin-2-ylmethyl-1H-indol-5-yl)-5H-pyrrolo[2,3-b]pyrazin-7-yl]-propan-1-one] | 194 to 196 °C | – |
| CC(C)(C)C(=O)c1c[nH]c2ncc(-c3ccc4c(ccn4Cc4cccnc4)c3)nc12 [Compound I-48, 2,2-Dimethyl-1-[2-(1-pyridin-3-ylmethyl-1H-indol-5-yl)-5H-pyrrolo[2,3-b]pyrazin-7-yl]-propan-1-one] | 170 to 171 °C | – |
| CC(C)(C)C(=O)c1c[nH]c2ncc(-c3ccc4c(ccn4Cc4ccncc4)c3)nc12 [Compound I-49, 2,2-Dimethyl-1-[2-(1-pyridin-4-ylmethyl-1H-indol-5-yl)-5H-pyrrolo[2,3-b]pyrazin-7-yl]-propan-1-one] | 241 to 243 °C | 152 nM |
| CN1CC=C(c2c[nH]c3ccc(-c4cnc5[nH]cc(C(=O)C(C)(C)C)c5n4)cc23)CC1 [Compound I-50, 2,2-Dimethyl-1-{2-[3-(1-methyl-1,2,3,6-tetrahydro-pyridin-4-yl)-1H-indol-5-yl]-5H-pyrrolo[2,3-b]pyrazin-7-yl}-propan-1-one] | 263 to 265 °C | 155 nM |
| CC1(C(=O)c2c[nH]c3ncc(-c4ccc5[nH]ccc5c4)nc23)CCCCC1 [Compound I-52, [2-(1H-Indol-5-yl)-5H-pyrrolo[2,3-b]pyrazin-7-yl]-(1-methyl-cyclohexyl)-methanone] | – | 32.4 nM |
| CN(c1cc(-c2cnc3[nH]cc(C(=O)C(C)(C)C)c3n2)cc2[nH]ccc12)S(=O)(=O)c1ccc(N)cc1 [Compound I-54, 4-Amino-N-{6-[7-(2,2-dimethyl-propionyl)-5H-pyrrolo[2,3-b]pyrazin-2-yl]-1H-indol-4-yl}-N-methyl-benzenesulfonamide] | – | 158 nM |
| CC(C)(C)C(=O)c1c[nH]c2ncc(-c3cc(N4CCCC4)ccn3)nc12 [Example 6, 2,2-Dimethyl-1-[2-(4-pyrrolidin-1-yl-pyridin-2-yl)-5H-pyrrolo[2,3-b]pyrazin-7-yl]-propan-1-one] | 260 to 263 °C | – |
| CC(C)(C)C(=O)c1c[nH]c2ncc(-c3ccccn3)nc12 [Example 8, 2,2-Dimethyl-1-(2-pyridin-2-yl-5H-pyrrolo[2,3-b]pyrazin-7-yl)-propan-1-one] | 276 to 278 °C | – |
| CCc1cccc(-c2cnc3[nH]cc(C(=O)C(C)(C)C)c3n2)c1 [Example 9, 1-[2-(3-Ethyl-phenyl)-5H-pyrrolo[2,3-b]pyrazin-7-yl]-2,2-dimethyl-propan-1-one] | 199 to 200.1 °C | – |
